Experimental data: US6590140B1, “Metal-regulated transporters and uses therefor” (Trustees of Dartmouth College, priority 1996, dated 2003)

Molecular target: T1, IRT1 (Arabidopsis thaliana, UniProt Q38856)
T1 construct: contain a single 1017 bp open reading frame capable of encoding a polypeptide of 339 amino acids; expressed in transfected cells; host or cells: S. cerevisiae fet3 fet4 strain DEY1453 carrying pIRT-1 (pFL61 library vector, phosphoglycerate kinase promoter)
T1 sequence (Q38856 9-347 limits assumed): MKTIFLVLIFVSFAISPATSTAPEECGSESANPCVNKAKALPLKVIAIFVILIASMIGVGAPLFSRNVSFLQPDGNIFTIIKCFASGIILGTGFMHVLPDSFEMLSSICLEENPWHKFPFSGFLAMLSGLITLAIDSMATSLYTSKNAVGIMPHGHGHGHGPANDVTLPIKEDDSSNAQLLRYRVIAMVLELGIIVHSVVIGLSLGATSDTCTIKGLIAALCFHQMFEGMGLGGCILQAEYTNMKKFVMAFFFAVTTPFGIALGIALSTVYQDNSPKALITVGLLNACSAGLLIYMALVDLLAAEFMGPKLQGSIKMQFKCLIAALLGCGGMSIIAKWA
Assay: 55Fe uptake in fet3 fet4 yeast expressing IRT1
Assay type: cell-based
Conditions: for effect on the rate of iron uptake by IRT1: 10 μM metal, 10 times the radiolabeled iron, Fe(II) with 1 mM ascorbate
Protocol: Iron uptake assays using ^55FeCl3 (Amersham, Arlington Heights, Ill.) were performed as described (Eide, D. et al. (1992) J. Biol. Chem. 267: 20774-20781) except that MGN (10 mM Mes/2% glucose/1 mM nitrilotriacetic acid, pH 6.1) was used for the assay buffer. Where noted, 1 mM sodium ascorbate was added to reduce Fe(III) to Fe(II). Stock solutions of the chloride salt of each metal (except for iron) were prepared in water at a concentration of 100 mM and diluted into MGN to a final concentration of 10 μM before addition of the cells. The ^56FeCl3 stock was 50 mM prepared in 0.1 M HCl. The statistical significance of differences in values relative to controls was determined using STATVIEW software (Abacus Concepts, Berkeley, Calif.). Data was subjected to one-way analysis of variance (ANOVA) followed by a Scheffe's test.
To determine if IRT1 encodes an iron transporter, ^55Fe uptake rates were examined in a fet3 fet4 strain expressing IRT1. Little or no uptake was detected at 0° C. for either IRT1-expressing or untransformed control cells (FIG. 2A). The fet3 fet4 mutant strain DEY1453 (circles) and DEY1453 transformed with pIRT-1 (squares) were grown to exponential phase in SD glucose and assayed for iron uptake with ^55Fe. (A) Time- and temperature-dependence of iron accumulation assayed in MGN with 1 mM ascorbate and 5 μM ^55FeCl3 assayed at 30° C. (open symbols) or 0° C. (solid symbols). The dashed line marked with open triangles represents the IRT1-dependent accumulation, i.e., the accumulation of iron by the untransformed strain at 30° C. subtracted from the accumulation of the pIRT-1-bearing strain at 30° C. […] The IRT1-dependent rate was ≈3-fold higher than the control uptake rate. No increased uptake was apparent in strains bearing either of two randomly selected clones from the library, indicating the dependence of these uptake effects on expression of IRT1. The iron uptake activity dependent on IRT1 expression was also concentration-dependent and saturable (FIG. 2B). The same strains as in A were assayed for iron uptake rates for 10 min over a range of concentrations. The dashed lines marked with open triangles represents the IRT1-dependent uptake rate, i.e., background uptake rate of the untransformed strain subtracted from the corresponding rate of the pIRT-1-bearing strains. (Inset) Eadie-Hofstee plot of the IRT1-dependent uptake data. Each point represents the mean of three experiments each performed in duplicate. The standard deviation within each experiment was less that 20% of the corresponding mean.
The experiments described above were conducted with iron supplied as Fe(II), i.e., in the presence of ascorbate, an agent capable of reducing Fe(III) to Fe(II). To determine if Fe(II) is the preferred substrate over Fe(III), assays were carried out in the absence of ascorbate where iron is supplied to the cells as Fe(III). […] The fet3 fet4 mutant strain DEY1453 and DEY1453 transformed with pIRT-1 were grown to exponential phase is SD glucose and assayed for iron uptake with 1 μM FeCl3 in MGN for 10 min. The values shown are the IRT1-dependent rates, i.e., the untransformed strain control values were subtracted from the DEY1453 pIRT-1 values and represent the means of four replicates. The asterisks indicate significant of differences from the control values (P<0.05). Assays were performed in the absence [Fe(III)] or presence [Fe(II)] of 1 mM ascorbate. […] Although yeast are capable of reducing Fe(III) to Fe(II) through the action of plasma membrane Fe(III) reductases, this rate of cell-mediated reduction is slower than reduction by ascorbate and therefore may be rate-limiting for IRT1-dependent uptake. To assess if metals other than iron are potential substrates for IRT1, several transition metals were tested for their ability to inhibit accumulation of iron in IRT1-expressing cells (FIG. 3B). Assays were conducted in the absence (−) or presence of 10 μM metal. […]

SMILES	inhibition of IRT1-mediated Fe(II) uptake in yeast (summary statement)	effect on the rate of iron uptake by IRT1 (10 min)	also measured
[Cl-].[Cl-].[Co+2] [Co]	inhibitors of IRT1-mediated Fe(II) uptake	no significant effect	–
[Cl][Cu][Cl] [Cu]	–	no significant effect	–
[Fe+2] [Fe(II)]	–	potent inhibitors	IRT1-dependent uptake rate relative to control uptake rate (5 μM 55FeCl3, 1 mM ascorbate, 30° C., first 10 min): ≈ 3 fold; Vmax of IRT1-mediated iron uptake (iron supplied as Fe(II) (1 mM ascorbate), 10 min, DEY1453 pIRT-1 minus untransformed strain): 1.9±0.4 pmol per min per 10^6 cells; Km (iron supplied as Fe(II) (1 mM ascorbate), 10 min, DEY1453 pIRT-1 minus untransformed strain, read-out: apparent Km of IRT1-mediated iron uptake): 6 ± 1 µM
[Cl][Fe]([Cl])[Cl] [Fe(III)]	–	–	iron uptake rate in the absence of ascorbate relative to rate with ascorbate (1 μM FeCl3 in MGN, 10 min, iron supplied as Fe(III)): ≈ 10%
[Cl][Mn][Cl] [Mn]	inhibitors of IRT1-mediated Fe(II) uptake	no significant effect	–
[Cl][Ni][Cl] [Ni]	–	no significant effect	–
[Zn+2] [zinc]	inhibitors of IRT1-mediated Fe(II) uptake	no significant effect	–
